# In patent publication US8993606B2, “Oral formulations for treating metal overload” (FerroKin BioSciences, Inc., priority 2011, dated 2015):
# Key:
# [1] = test system: healthy subjects; test: Safety: single-dose study in healthy subjects (3, 6, 10, 16 mg/kg); format: in vivo; conditions: for Arthralgia / Colitis / Flatulence / Gastroenteritis / Headache / Somnolence / Total Number (%) of Subjects Experiencing Adverse Events / Total Number of Subjects Experiencing NO Adverse Events / Upper respiratory tract infection: 3 subjects
# Description: Example 8 was a double-blind, placebo-controlled single dose-escalating study in healthy subjects. Men between the ages of 18-45 years qualified to participate if they were able to voluntarily give consent and had no clinically significant abnormal findings at the screening evaluation. Specifically, subjects had blood pressure in the normal range, ECG and clinical laboratory values within normal limits, tested negative for drugs of abuse and had not recently donated blood. Subjects were also HIV, Hepatitis B, and Hepatitis C negative and agreed to use an approved method of contraception during the study.
# The objectives of this study were to assess the safety, tolerability, and pharmacokinetics of ascending single doses of Compound 1 compared to placebo. Additionally, dose proportionality and pharmacodynamics of Compound 1 were assessed. Four doses of Compound 1 (3, 6, 10, and 16 mg/kg), in capsule form, were evaluated in this study. Following screening, subjects in a given cohort were randomly assigned to receive either Compound 1 or placebo. In the first cohort, 3 subjects received […] and 2 received placebo; in each of the subsequent remaining 3 cohorts, 3 subjects received the next higher dose of Compound 1 and 1 received placebo. Subjects were dosed and then confined to the clinical research unit for 24 hours to conduct safety and pharmacokinetic assessments. Subjects were released from the clinic on Day 2 and returned daily for follow-up visits for 5 days post-dosing.
# All 17 enrolled subjects completed the study: Twelve received a single dose of Compound 1 (3, 6, 10, and 16 mg/kg) and 5 received placebo. […] Treatment-emergent adverse events (TEAEs) were reported for 5 of the 12 subjects receiving Compound 1 (Table 28 and 29). A total of 9 AEs were reported; 8 treatment-emergent, and 1 pre-dose, all in subjects receiving Compound 1. […] Additionally, there were no clear differences in safety as evaluated by clinical laboratory assessments, vital sign measurements, and ECG parameters between subjects who had received Compound 1 compared with those who received placebo, and no apparent dose-related trends in these safety assessments in subjects who received Compound 1.
# [2] = Relative humidity stress (deliquescence, hygroscopicity); format: physicochemical
smiles,measurement,setting,value
"COCCOCCOCCOc1cccc(C2=N[C@@](C)(C(=O)O)CS2)c1O [Compound 1, (S)-4,5-Dihydro-2-[2-hydroxy-3-(3,6,9-trioxadecyloxy)phenyl]-4-methyl-4-thiazolecarboxylate magnesium hydroxide]",Arthralgia,[1]; 3 mg/kg,0 Number (%) Subjects
same,Colitis,[1]; 3 mg/kg,0 Number (%) Subjects
same,Flatulence,[1]; 3 mg/kg,0 Number (%) Subjects
same,Gastroenteritis,[1]; 3 mg/kg,1 (33%) Number (%) Subjects
same,Headache,[1]; 3 mg/kg,0 Number (%) Subjects
same,Somnolence,[1]; 3 mg/kg,1 (33%) Number (%) Subjects
same,Total Number (%) of Subjects Experiencing Adverse Events,[1]; 3 mg/kg,1 (33%) Number (%)
same,Total Number of Subjects Experiencing NO Adverse Events,[1]; 3 mg/kg,2 (67%)
same,Upper respiratory tract infection,[1]; 3 mg/kg,0 Number (%) Subjects
same,Arthralgia,[1]; 6 mg/kg,1 (33%) Number (%) Subjects
same,Colitis,[1]; 6 mg/kg,0 Number (%) Subjects
same,Flatulence,[1]; 6 mg/kg,0 Number (%) Subjects
same,Gastroenteritis,[1]; 6 mg/kg,0 Number (%) Subjects
same,Headache,[1]; 6 mg/kg,0 Number (%) Subjects
same,Somnolence,[1]; 6 mg/kg,0 Number (%) Subjects
same,Total Number (%) of Subjects Experiencing Adverse Events,[1]; 6 mg/kg,1 (33%) Number (%)
same,Total Number of Subjects Experiencing NO Adverse Events,[1]; 6 mg/kg,2 (67%)
same,Upper respiratory tract infection,[1]; 6 mg/kg,1 (33%) Number (%) Subjects
same,Colitis,[1]; 10 mg/kg,0 Number (%) Subjects
same,Flatulence,[1]; 10 mg/kg,0 Number (%) Subjects
same,Gastroenteritis,[1]; 10 mg/kg,0 Number (%) Subjects
same,Headache,[1]; 10 mg/kg,0 Number (%) Subjects
same,Somnolence,[1]; 10 mg/kg,0 Number (%) Subjects
same,Total Number (%) of Subjects Experiencing Adverse Events,[1]; 10 mg/kg,0 Number (%)
same,Total Number of Subjects Experiencing NO Adverse Events,[1]; 10 mg/kg,3 (100%)
same,Upper respiratory tract infection,[1]; 10 mg/kg,0 Number (%) Subjects
same,Arthralgia,[1]; 16 mg/kg,0 Number (%) Subjects
same,Colitis,[1]; 16 mg/kg,1 (33%) Number (%) Subjects
same,Flatulence,[1]; 16 mg/kg,1 (33%) Number (%) Subjects
same,Headache,[1]; 16 mg/kg,1 (33%) Number (%) Subjects
same,Somnolence,[1]; 16 mg/kg,0 Number (%) Subjects
same,Total Number (%) of Subjects Experiencing Adverse Events,[1]; 16 mg/kg,3 (100%) Number (%)
same,Total Number of Subjects Experiencing NO Adverse Events,[1]; 16 mg/kg,0
same,Upper respiratory tract infection,[1]; 16 mg/kg,0 Number (%) Subjects
same,tolerability,"[1]; single dose 3, 6, 10, 16 mg/kg",well tolerated
same,"deaths, SAEs, withdrawals due to AEs",[1]; single dose 3-16 mg/kg,"no deaths, no serious adverse events (SAEs), and no withdrawals due to AEs"
same,subjects with treatment-emergent adverse events (TEAEs),[1]; single dose 3-16 mg/kg,5 of the 12
same,total AEs reported,[1]; single dose 3-16 mg/kg,9 AEs
same,treatment-emergent AEs,[1]; single dose 3-16 mg/kg,8
same,hygroscopicity,[2],non-hygroscopic
same,XRPD pattern after RH exposure,[2]; 75% RH for 8 days,remained unchanged
same,deliquescence,[2]; exposed to 75% RH for 8 days,did not deliquesce
